Key:
Assay type in all cases: in vivo
[1] = test system: bermudagrass (Cynodon dactylon); assay: Test B pre-/postemergence plant response; conditions: Postemergence
Text: (§1) Seeds of plant species selected from blackgrass (Alopecurus myosuroides), downy bromegrass (Bromus tectorum), green foxtail (Setaria viridis), Italian ryegrass (Lolium multiflorum), wheat (Triticum aestivum), wild oat (Avena fatua), deadnettle (henbit deadnettle, Lamium amplexicaule), galium (catchweed bedstraw, Galium aparine), bermudagrass (Cynodon dactylon), Surinam grass (Brachiaria decumbens), cocklebur (Xanthium strumarium), corn (Zea mays), large crabgrass (Digitaria sanguinalis), woolly cupgrass (Eriochloa villosa), giant foxtail (Setaria faberii), goosegrass (Eleusine indica), johnsongrass (Sorghum halepense), kochia (Kochia scoparia), lambsquarters (Chenopodium album), morningglory (Ipomoea coccinea), nightshade (eastern black nightshade, Solanum ptycanthum), yellow nutsedge (Cyperus esculentus), pigweed (Amaranthus retroflexus), ragweed (common ragweed, Ambrosia elatior), Russian thistle (Salsola kali), soybean (Glycine max), sunflower (common oilseed sunflower, Helianthus annuus) and velvetleaf (Abutilon theophrasti) were planted into a blend of loam soil and sand and treated preemergence with test compounds formulated in a non-phytotoxic solvent mixture which included a surfactant.
(§2) At the same time, plants selected from these crop and weed species and also winter barley (Hordeum vulgare), canarygrass (Phalaris minor), chickweed (Stellaria media) and windgrass (Apera spica-venti) were planted in pots containing Redi-Earth® planting medium (Scotts Company, 14111 Scottslawn Road, Marysville, Ohio 43041) comprising spaghnum peat moss, vermiculite, wetting agent and starter nutrients and treated with postemergence applications of some of the test chemicals formulated in the same manner. Plants ranged in height from 2 to 18 cm (1- to 4-leaf stage) for postemergence treatments.
(§3) Treated plants and controls were maintained in a greenhouse for 13 to 15 days, after which time all treated plants were visually evaluated and compared to controls. Plant response ratings, summarized in Table B, are based on a scale of 0 to 100 where 0 is no effect and 100 is complete control. A dash (-) response means no test result.

[2] = test system: blackgrass (Alopecurus myosuroides); assay: Test B pre-/postemergence plant response; conditions: Postemergence
Text: as §1, §2, §3

[3] = test system: cocklebur (Xanthium strumarium); assay: Test B pre-/postemergence plant response; conditions: Postemergence
Text: as §1, §2, §3

[4] = test system: corn (Zea mays); assay: Test B pre-/postemergence plant response; conditions: Postemergence
Text: as §1, §2, §3

[5] = test system: giant foxtail (Setaria faberii); assay: Test B pre-/postemergence plant response; conditions: Postemergence
Text: as §1, §2, §3

[6] = test system: johnsongrass (Sorghum halepense); assay: Test B pre-/postemergence plant response; conditions: Postemergence
Text: as §1, §2, §3

[7] = test system: kochia (Kochia scoparia); assay: Test B pre-/postemergence plant response; conditions: Postemergence
Text: as §1, §2, §3

[8] = test system: morningglory (Ipomoea coccinea); assay: Test B pre-/postemergence plant response; conditions: Postemergence
Text: as §1, §2, §3

[9] = test system: soybean (Glycine max); assay: Test B pre-/postemergence plant response
Text: as §1, §2, §3

[10] = test system: wild oat (Avena fatua); assay: Test B pre-/postemergence plant response; conditions: Postemergence
Text: as §1, §2, §3

[11] = test system: canarygrass (Phalaris minor); assay: Test B postemergence plant response; conditions: Postemergence
How it was run: (§4)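 Visual ratings from 0 (no effect) to 100 (complete control), made against controls 13–15 days after treatment, kept in a greenhouse. Compounds were applied postemergence to potted plants at the 1- to 4-leaf stage (2–18 cm).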

[12] = test system: chickweed (Stellaria media); assay: Test B postemergence plant response; conditions: Postemergence
How it was run: as §4

[13] = test system: windgrass (Apera spica-venti); assay: Test B postemergence plant response; conditions: Postemergence
How it was run: as §4

[14] = test system: winter barley (Hordeum vulgare); assay: Test B postemergence plant response; conditions: Postemergence
How it was run: as §4

[15] = 31 g ai/ha, scale 0 to 100 (0 no effect, 100 complete control)
[16] = 62 g ai/ha, scale 0 (no effect) to 100 (complete control), 13 to 15 days
[17] = 125 g ai/ha, scale 0 to 100 (0 no effect, 100 complete control), 13 to 15 days
[18] = 125 g ai/ha, visual rating after 13 to 15 days, scale 0 (no effect) to 100 (complete control)

5-[(2-hydroxy-6-oxo-1-cyclohexen-1-yl)carbonyl]-2,3-diphenyl-4(3H)-pyrimidinone [Compound 2]
Plant response rating, Bermudagrass [1, 15]: 40
Plant response rating, Bermudagrass [1, 16]: 50
Plant response rating, Bermudagrass [1, 17]: 60
Bermudagrass plant response rating ([1]; 250 g ai/ha, scale 0 to 100): 65
Plant response rating, Blackgrass [2, 15]: 0
Plant response rating, Blackgrass [2, 16]: 0
Plant response rating, Blackgrass [2, 18]: 5
Blackgrass plant response rating ([2]; 250 g ai/ha, scale 0 to 100): 5
Plant response rating, Cocklebur [3, 15]: 65
Plant response rating, Cocklebur [3, 16]: 65
Plant response rating, Cocklebur [3, 18]: 70
Cocklebur plant response rating ([3]; 250 g ai/ha, scale 0 to 100): 85
Plant response rating, Corn [4, 15]: 0
Plant response rating, Corn [4, 16]: 0
Plant response rating, Corn [4, 18]: 0
Corn plant response rating ([4]; 250 g ai/ha, scale 0 to 100): 0
Plant response rating, Foxtail, Giant [5, 15]: 0
Plant response rating, Foxtail, Giant [5, 16]: 15
Plant response rating, Foxtail, Giant [5, 18]: 20
Foxtail, Giant plant response rating ([5]; 250 g ai/ha, scale 0 to 100): 50
Plant response rating, Johnsongrass [6, 15]: 0
Plant response rating, Johnsongrass [6, 16]: 0
Plant response rating, Johnsongrass [6, 18]: 0
Johnsongrass plant response rating ([6]; 250 g ai/ha, scale 0 to 100): 20
Plant response rating, Kochia [7, 15]: 15
Plant response rating, Kochia [7, 16]: 20
Plant response rating, Kochia [7, 18]: 25
Kochia plant response rating ([7]; 250 g ai/ha, scale 0 to 100): 45
Plant response rating, Morningglory [8, 15]: 0
Plant response rating, Morningglory [8, 16]: 20
Plant response rating, Morningglory [8, 18]: 45
Morningglory plant response rating ([8]; 250 g ai/ha, scale 0 to 100): 65
Plant response rating, Soybean ([9]; Postemergence, 31 g ai/ha, scale 0 to 100 (0 no effect, 100 complete control)): 50
Plant response rating, Soybean ([9]; Postemergence, 62 g ai/ha, scale 0 (no effect) to 100 (complete control), 13 to 15 days): 65
Plant response rating, Soybean ([9]; Postemergence, 125 g ai/ha, visual rating after 13 to 15 days, scale 0 (no effect) to 100 (complete control)): 70
Soybean plant response rating ([9]; Postemergence, 250 g ai/ha, scale 0 to 100): 80
Soybean plant response rating (0 to 100 scale) ([9]; Preemergence, 0 is no effect, 100 is complete control, rated after 13 to 15 days, application rate of this section not shown): 0
Plant response rating, Oat, Wild [10, 15]: 5
Plant response rating, Oat, Wild [10, 16]: 5
Plant response rating, Oat, Wild [10, 18]: 10
Oat, Wild plant response rating ([10]; 250 g ai/ha, scale 0 to 100): 10
Plant response rating, Canarygrass [11, 15]: 0
Plant response rating, Canarygrass [11, 16]: 0
Plant response rating, Canarygrass [11, 18]: 0
Canarygrass plant response rating ([11]; 250 g ai/ha, scale 0 to 100): 0
Plant response rating, Chickweed [12, 15]: 55
Plant response rating, Chickweed [12, 16]: 60
Plant response rating, Chickweed [12, 18]: 65
Chickweed plant response rating ([12]; 250 g ai/ha, scale 0 to 100): 90
Plant response rating, Windgrass [13, 15]: 0
Plant response rating, Windgrass [13, 16]: 0
Plant response rating, Windgrass [13, 18]: 0
Windgrass plant response rating ([13]; 250 g ai/ha, scale 0 to 100): 5
Plant response rating, Barley [14, 15]: 0
Plant response rating, Barley [14, 16]: 0
Plant response rating, Barley [14, 17]: 0
Barley plant response rating ([14]; 250 g ai/ha, scale 0 to 100): 0

Source: patent publication US8952024B2, “Herbicidal pyrimidone derivatives” (E I du Pont de Nemours and Company, priority 2009, dated 2015)
